Assays:
[1] = system: BHK cells expressing ABCA1; assay: Radiolabeled cholesterol efflux from ABCA1-BHK cells; type: cell-based; details: [3H]-cholesterol transferred from ABCA1-BHK cells to serum free medium containing peptides over 18 h; triplicates
[2] = Solubilization of DMPC lipid vesicles by peptides; type: physicochemical; details: DMPC vesicles 1 mg/mL in PBS, peptide 0.1 mg/mL, 24 °C, 660 nm

VLESFKVSFLSALEEYTKKLNT
ABCA1-mediated cholesterol efflux [1]: almost completely inactive
DMPC vesicle solubilization, comparison between peptides [2]: less effective than the other active peptides
